Results reported in PMC8777265, “The Environmental Pollutant Bromophenols Interfere With Sulfotransferase That Mediates Endocrine Hormones” (Frontiers in Endocrinology, 2022).

Columns and labels:
Assay type in all cases: biochemical
[1] = molecular target: T1, SULT1B1 (Homo sapiens, UniProt O43704); assay: PNP sulfation, UPLC-UV, […] inhibitor
T1 construct: recombinant human enzyme, commercial (BD Gentest)

[2] = molecular target: T2, SULT1A3 (Homo sapiens, UniProt P0DMM9); assay: PNP sulfation, UPLC-UV, […] inhibitor
T2 construct: recombinant human enzyme, commercial (BD Gentest)

[3] = molecular target: T2, SULT1A3; assay: PNP sulfation, UPLC-UV, Lineweaver-Burk with slope replot
[4] = molecular target: T3, SULT1A1 (Homo sapiens, UniProt P50225); assay: PNP sulfation, UPLC-UV, […] inhibitor
T3 construct: recombinant human enzyme, commercial (BD Gentest)

[5] = molecular target: T4, SULT1E1 (Homo sapiens, UniProt P49888); assay: PNP sulfation, UPLC-UV, […] inhibitor
T4 construct: recombinant human enzyme, commercial (BD Gentest)
T4 sequence (P49888 1-294): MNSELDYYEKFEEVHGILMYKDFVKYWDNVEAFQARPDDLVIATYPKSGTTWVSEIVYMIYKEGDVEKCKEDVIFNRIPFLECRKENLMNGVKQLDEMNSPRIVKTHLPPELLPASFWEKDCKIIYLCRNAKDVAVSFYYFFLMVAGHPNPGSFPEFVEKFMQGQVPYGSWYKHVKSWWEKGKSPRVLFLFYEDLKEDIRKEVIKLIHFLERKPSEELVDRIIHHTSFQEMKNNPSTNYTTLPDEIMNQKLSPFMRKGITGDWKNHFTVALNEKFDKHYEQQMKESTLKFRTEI

[6] = molecular target: T3, SULT1A1; assay: PNP sulfation, UPLC-UV, single-concentration screen; conditions: 40 µM PNP, 40 µM PAPS, 5 mM MgCl2, 100 mM Tris-HCl pH 7.4, 37 °C
[7] = molecular target: T1, SULT1B1; assay: as above; conditions: 25 µM PNP, 40 µM PAPS, 5 mM MgCl2, 100 mM Tris-HCl pH 7.4, 37 °C

T1 sequence (O43704 whole entry): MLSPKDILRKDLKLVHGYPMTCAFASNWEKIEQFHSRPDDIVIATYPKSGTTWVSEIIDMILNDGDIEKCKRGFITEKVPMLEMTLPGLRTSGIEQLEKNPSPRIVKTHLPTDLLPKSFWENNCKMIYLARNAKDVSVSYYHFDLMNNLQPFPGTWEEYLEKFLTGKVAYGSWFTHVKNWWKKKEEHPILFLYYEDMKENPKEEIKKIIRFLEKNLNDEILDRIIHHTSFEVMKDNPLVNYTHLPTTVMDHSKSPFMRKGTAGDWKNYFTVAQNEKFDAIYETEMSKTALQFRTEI
T3 sequence (P50225 whole entry): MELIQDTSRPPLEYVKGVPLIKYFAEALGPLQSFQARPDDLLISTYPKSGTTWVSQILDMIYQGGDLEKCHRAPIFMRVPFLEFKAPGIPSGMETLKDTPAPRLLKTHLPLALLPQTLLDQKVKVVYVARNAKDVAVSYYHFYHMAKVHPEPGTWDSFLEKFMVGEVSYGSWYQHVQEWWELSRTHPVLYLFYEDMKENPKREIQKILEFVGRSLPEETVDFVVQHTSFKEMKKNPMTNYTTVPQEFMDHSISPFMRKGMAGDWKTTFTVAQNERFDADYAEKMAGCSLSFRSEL
T2 sequence (P0DMM9 whole entry): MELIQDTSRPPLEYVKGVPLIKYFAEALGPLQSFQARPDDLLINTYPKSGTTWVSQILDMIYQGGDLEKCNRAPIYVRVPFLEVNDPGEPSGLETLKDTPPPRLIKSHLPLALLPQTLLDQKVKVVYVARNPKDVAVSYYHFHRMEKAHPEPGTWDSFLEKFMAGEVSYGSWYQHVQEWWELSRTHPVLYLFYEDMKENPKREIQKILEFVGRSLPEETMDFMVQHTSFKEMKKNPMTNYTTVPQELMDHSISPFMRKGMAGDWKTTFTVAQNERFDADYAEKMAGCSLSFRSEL

| SMILES | IC50 [1] [µM] | IC50 [2] [µM] | Ki [3] [µM] | IC50 [4] [µM] | IC50 [5] [µM] | % inhibition at 100 μM [6] | % inhibition at 100 μM [7] |
| --- | --- | --- | --- | --- | --- | --- | --- |
| Oc1c(Br)cc(Br)cc1Br [2,4,6-TBP] | 1.06 | 4.02 | 16.3 | 1.02 | 6.06 |  |  |
| Oc1cccc(Br)c1 [3-BP] |  |  |  |  |  | 3-BP and 4-BP only showed strong inhibition ability towards SULT1A1 and SULT1B1 | 3-BP and 4-BP only showed strong inhibition ability towards SULT1A1 and SULT1B1 |
| Oc1ccc(Br)cc1Br [2,4-DBP] | 4.22 | 25.5 |  | 1.03 | 3.24 |  |  |
| Oc1ccccc1Br [2-BP] | 1.07 | 8.88 |  | 1.03 | 25.9 |  |  |
| Oc1cc(Br)ccc1Br [2,5-DBP] | 5.42 | 12.9 |  | 1.24 |  |  |  |
